Experimental data published in US20260240878A1, “PTP1B/TC-PTP DUAL INHIBITORS AND PROTEIN DEGRADERS” (Purdue Research Foundation, priority 2023, published 2026).
*1 amine or outer side, *2 acyl side, *3 side chain or, on linkers, in order; H or OH if unused. Where a SMILES comes first, the peptide text is derived from it. [ ]: non-standard residue; d: D form. The star is where a group is joined. NHCH2(1,3-C6H4)CH2CO = O=C(Cc1cccc(CN[*:1])c1)[*:2]; F2Pmp = N[C@@H](Cc1ccc(C(F)(F)P(=O)(O)O)cc1)C(=O)O; Phenylacetyl(4-OH,3-OMe) = COc1cc(CC(=O)*)ccc1O; Benzoyl(3-Br,4-Me) = Cc1ccc(C(=O)*)cc1Br; X1 = Cc1ncsc1-c1ccc([C@H](C)N*)cc1; Hyp = O=C(O)[C@@H]1C[C@@H](O)CN1; Tle = CC(C)(C)[C@H](N)C(=O)O

Assays:
pSTAT1 = assay: STAT1 phosphorylation in IFN-γ stimulated HEK293 cells (western blot); assay type: cell-based; details: Homo sapiens, HEK293, 16 h, read-out: EC50 of pSTAT1 activation
Protocol: Wild-type HEK293 cells were treated with compound 47 or ABBV-CLS-484 for 16 hours, and stimulated with 20 ng/ml IFN-γ to induce JAK-STAT signaling pathway activation.
Abbvie and Calico developed a potent PTP1B/TC-PTP inhibitor ABBV-CLS-484 (disclosed in International PCT application WO2019246513), and it is currently being evaluated as a treatment for locally advanced or metastatic tumors (NCT04777994).

[1] = Blood glucose levels study in mice; assay type: in vivo, mouse
Protocol: Blood glucose levels were measured 24 or 48 hours after injection. No starvation applied. NFD=normal fat diet fed mice. […] Mice were treated with 25 or 50 mg/kg of compound 47 daily through i.p. injection. Blood glucose levels were measured several times before injection during the experiment.
PTP1B and TC-PTP are known to function in concert in regulating both insulin and leptin-mediated cellular processes. The inhibition of PTP1B and TC-PTP was reported to improve insulin sensitivity and glucose homeostasis in diet-induced obese mice. The effect of compound 47 on the glucose levels in mice was evaluated.

TC-PTP = target: T1, TC-PTP (Homo sapiens, UniProt P17706); assay: PTP activity assay with pNPP substrate (IC50, Ki, mode of inhibition); assay type: biochemical; details: pNPP 2 mM, pH 7.0, 25° C.; read-out: IC50, nM TC-PTP
T1 sequence (P17706 1-415): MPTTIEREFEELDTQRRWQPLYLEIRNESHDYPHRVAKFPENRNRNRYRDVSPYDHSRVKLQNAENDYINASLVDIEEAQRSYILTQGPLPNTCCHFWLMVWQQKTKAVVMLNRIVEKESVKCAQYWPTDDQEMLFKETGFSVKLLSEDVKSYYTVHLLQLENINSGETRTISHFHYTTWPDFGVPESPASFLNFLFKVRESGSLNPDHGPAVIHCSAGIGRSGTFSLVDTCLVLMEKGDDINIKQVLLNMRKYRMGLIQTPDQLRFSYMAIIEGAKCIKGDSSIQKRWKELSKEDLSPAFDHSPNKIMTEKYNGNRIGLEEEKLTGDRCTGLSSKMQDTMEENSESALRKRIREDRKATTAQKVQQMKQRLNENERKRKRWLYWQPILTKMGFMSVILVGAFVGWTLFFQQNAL
Summary of the method: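 Hydrolysis of pNPP measured spectrophotometrically in pH 7.0 DMG buffer (EDTA, NaCl, DTT, BSA) at 25 °C, 0.4 nM enzyme. IC50 at 2 mM pNPP (Km) over an inhibitor titration; mode of inhibition and Ki from rates across varied pNPP and inhibitor levels, fitted to enzyme kinetic models.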

HEK293 cells = assay: Proteomic analysis for degradation selectivity in HEK293 cells; assay type: cell-based; details: 100 nM, 4 hours
Protocol: The proteome-wide degradation selectivity of compound 47 was assessed by performing quantitative mass spectrometry-based proteomic experiments to determine the range of targets degraded by compound 47 in HEK293 cells.

PTP1B and TC-PTP = assay: Immunofluorescence of PTP1B and TC-PTP in U2OS cells; assay type: cell-based; details: 1 μM, 3 hours and 24 hours
Protocol: MG132 (20 μM) was used along with compound 47 to block PTP1B and TC-PTP degradation.

[2] = Pharmacokinetic study in mice (i.p., different formulas); assay type: in vivo, mouse; details: PBS buffer compared to saline
Protocol: Plasma concentrations of compound 47 were measured by LCMS after i.p. injection with different formulas at the indicated time.
For the PK study, C57BL6 female mice (25-30 g body weight) were injected intraperitoneally with 25 or 50 mg/kg compound 47 dissolved in 0.4 ml saline. Blood samples were collected through the tail vein at indicated time points after injection. Isoflurane was used as an anesthetic. All blood samples were centrifuged at 1,500 g for 5 minutes, and plasma was separated and stored at −80° C. until analysis by a validated method based on reversed-phase liquid chromatography coupled to mass-spectrometric detection (LC/MS) using a reported procedure (Journal of Clinical Investigation, 2018, 128, 816-825), which is hereby specifically incorporated by reference for its teachings regarding same (FIG. 5A).
Saline was replaced by PBS buffer in the treatment of compound 47 in mice to improve PK properties (FIG. 10). Both Cmax and area under the curve (AUC) were increased compared to the above method with saline.

COc1cc(CC(=O)N[C@@H](Cc2ccccc2)C(=O)N[C@@H](Cc2ccc(C(F)(F)P(=O)(O)O)cc2)C(=O)N[C@@H](CCCCNC(=O)c2ccc(C)c(Br)c2)C(=O)NCc2cccc(CC(=O)N[C@H](C(=O)N3C[C@H](O)C[C@H]3C(=O)N[C@@H](C)c3ccc(-c4scnc4C)cc3)C(C)(C)C)c2)ccc1O [Compound 47, ((4-((S)-3-(((S)-6-(3-bromo-4-methylbenzamido)-1-((3-(2-(((S)-1-((2S,4R)-4-hydroxy-2-(((S)-1-(4-(4-methylthiazol-5-yl)phenyl)ethyl)carbamoyl)pyrrolidin-1-yl)-3,3-dimethyl-1-oxobutan-2-yl)amino)-2-oxoethyl)benzyl)amino)-1-oxohexan-2-yl)amino)-2-((S)-2-(2-(4-hydroxy-3-methoxyphenyl)acetamido)-3-phenylpropanamido)-3-oxopropyl)phenyl)difluoromethyl)phosphonic Acid] ({Phenylacetyl(4-OH,3-OMe)}-F[F2Pmp]K(Benzoyl(3-Br,4-Me))[NHCH2(1,3-C6H4)CH2CO][Tle][Hyp]-X1)
EC50 (pSTAT1): 0.0091 µM
blood glucose level ([1]; MC38 tumor mouse model, 25 mg/kg daily i.p.): did not lead to significant reduction in the level of blood glucose
blood glucose level ([1]; MC38 tumor mouse model, 50 mg/kg daily i.p.): slightly reduced blood glucose level
blood glucose level ([1]; high-fat diet (HFD) mice, 15 mg/kg): sufficient to reduce blood glucose level in high-fat diet (HFD) mice to that of normal fat diet fed (NFD) mice
blood glucose level ([1]; high-fat diet (HFD) mice, 50 mg/kg): further reduced glucose levels
IC50 (TC-PTP): 30.1 ± 2.3 nM
proteome-wide degradation selectivity (HEK293 cells): PTP1B was the only protein whose levels were significantly reduced
PTP1B and TC-PTP degradation by immunofluorescence (PTP1B and TC-PTP): degraded cytoplasm-localized PTP1B and both nucleus- and cytoplasm-localized TC-PTP
Cmax [2]: increased
area under the curve (AUC) [2]: increased
